Values after ≈ are worked out from the molar mass of the structure shown.
Tests used:
[1] = tested on: Mycobacterium tuberculosis; test: Bactericidal activity against Mycobacterium tuberculosis H37Rv; format: functional
[2] = tested on: Mycobacterium tuberculosis; test: Antimycobacterial activity against Mycobacterium tuberculosis H37Rv; format: functional, organism-based
[3] = tested on: Mycobacterium tuberculosis; test: Antimycobacterial activity against Mycobacterium tuberculosis H37Rv after 7 days by microplate alamar blue assay; format: functional; conditions: 168 h
[4] = tested on: Mycobacterium tuberculosis; test: Antimycobacterial activity against Mycobacterium tuberculosis H37Ra by microplate alamar blue assay; format: functional
[5] = tested on: Mycobacterium tuberculosis; test: Antimycobacterial activity against Mycobacterium tuberculosis H37Rv ATCC 27294 after 5 days by microplate alamar blue assay; format: functional; conditions: H37Rv ATCC 27294, 120 h
[6] = tested on: Mycobacterium tuberculosis; test: Antimycobacterial activity against Mycobacterium tuberculosis H37Rv ATCC 27294 by BACTEC-460 radiometric susceptibility assay; format: functional
[7] = tested on: Mycobacterium tuberculosis; test: Antimycobacterial activity against Mycobacterium tuberculosis H37Rv ATCC 27294 by microplate alamar blue assay; format: functional

Structure (SMILES): C=C(C)[C@@H]1CC[C@]2(COC(=O)CCC(=O)O)CC[C@]3(C)[C@H](CC[C@@H]4[C@@]5(C)CCCNC(C)(C)[C@@H]5CC[C@]43C)[C@@H]12
- MBC [1]: 11 µg/mL (≈ 20.3 µM)
- IC50 [2]: 40 µM
- IC90 [2]: 70 µM
- MIC [2]: 61 µM (≈ 33.1 µg/mL)

Structure (SMILES): C=C(C)[C@@H]1CC[C@]2(C(=O)O)CC[C@]3(C)[C@H](CC[C@@H]4[C@@]5(C)C[C@@H](O)[C@H](O)C(C)(C)[C@@H]5CC[C@]43C)[C@@H]12 [ALPHITOLIC ACID]
- MIC90 [3]: 12.5 µg/mL (≈ 26.4 µM)

Structure (SMILES): C[C@H]1[C@H](C)CC[C@]2(COC(=O)/C=C/c3ccccc3)CC[C@]3(C)C(=CC[C@@H]4[C@@]5(C)CCCNC(C)(C)[C@@H]5CC[C@]43C)[C@@H]12
- MBC [1]: 14 µg/mL (≈ 24.5 µM)
- IC50 [2]: 3.8 µM
- IC90 [2]: 5.2 µM
- MIC [2]: 6.25 µM (≈ 3.57 µg/mL)

Structure (SMILES): COc1ccc(/C=C/C(=O)OC[C@]23CC[C@@H](C)[C@H](C)[C@@H]2C2=CC[C@@H]4[C@@]5(C)CCCNC(C)(C)[C@@H]5CC[C@@]4(C)[C@]2(C)CC3)cc1
- MBC [1]: 12 µg/mL (≈ 19.9 µM)
- IC50 [2]: 1.8 µM
- IC90 [2]: 2.5 µM
- MIC [2]: 3.12 µM (≈ 1.88 µg/mL)

Structure (SMILES): COc1ccc(/C=C/C(=O)OC[C@]23CCC(C)(C)C[C@@H]2C2=CC[C@@H]4[C@@]5(C)CCCNC(C)(C)[C@@H]5CC[C@@]4(C)[C@]2(C)CC3)cc1
- IC50 [2]: > 100 µM
- IC90 [2]: > 100 µM
- MIC [2]: > 100 µM

Structure (SMILES): COC(=O)[C@]12CC[C@@H](C(C)COC(=O)CCC(=O)O)[C@@H]1[C@H]1CC[C@@H]3[C@@]4(C)CCC(=O)NC(C)(C)[C@@H]4CC[C@@]3(C)[C@]1(C)CC2 (stereo partly specified)
- IC50 [2]: 23 µM
- IC90 [2]: 27 µM
- MIC [2]: 28 µM (≈ 16.9 µg/mL)

Structure (SMILES): C[C@H]1[C@H](C)CC[C@]2(CO)CC[C@]3(C)C(=CC[C@@H]4[C@@]5(C)CCCNC(C)(C)[C@@H]5CC[C@]43C)[C@@H]12
- MBC [1]: 20 µg/mL (≈ 45.3 µM)
- IC50 [2]: 4.9 µM
- IC90 [2]: 14.5 µM
- MIC [2]: 12.5 µM (≈ 5.52 µg/mL)

Structure (SMILES): CC1(C)CC[C@]2(C(=O)O)CC[C@]3(C)C(=CC[C@@H]4[C@@]5(C)CC[C@H](O)C(C)(C)[C@@H]5CC[C@]43C)[C@@H]2C1 [OLEANOLIC_ACID]
- MIC [4]: 25 µg/mL (≈ 54.7 µM)
- MIC [5]: 50 µg/mL (≈ 109 µM)

Structure (SMILES): C[C@H]1[C@H](C)CC[C@]2(C(=O)O)CC[C@]3(C)C(=CC[C@@H]4[C@@]5(C)CC[C@H](OC(=O)/C=C/c6ccc(O)cc6)C(C)(C)[C@@H]5CC[C@]43C)[C@H]12
- MIC [4]: 6.25 µg/mL (≈ 10.4 µM)

Structure (SMILES): CC1(C)CC[C@]2(COC(=O)/C=C/c3ccccc3)CC[C@]3(C)C(=CC[C@@H]4[C@@]5(C)CCCNC(C)(C)[C@@H]5CC[C@]43C)[C@H]2C1
- MBC [1]: 12 µg/mL (≈ 21 µM)
- IC50 [2]: 8 µM
- IC90 [2]: 12 µM
- MIC [2]: 12 µM (≈ 6.86 µg/mL)

Structure (SMILES): COc1cc(/C=C/C(=O)O)ccc1O.C[C@H]1[C@H](C)CC[C@]2(C(=O)O)CC[C@]3(C)C(=CC[C@@H]4[C@@]5(C)CC[C@H](O)C(C)(C)[C@@H]5CC[C@]43C)[C@H]12
- MIC [4]: 3.13 µg/mL

Structure (SMILES): C[C@H]1[C@H](C)CC[C@]2(C(=O)O)CC[C@]3(C)C(=CC[C@@H]4[C@@]5(C)CC[C@H](O)C(C)(C)[C@@H]5CC[C@]43C)[C@H]12 [URSOLIC ACID]
- MIC99 [6]: 50 µg/mL (≈ 109 µM)
- MIC99 [2]: 100 µg/mL (≈ 219 µM)

Structure (SMILES): CCc1nc(N)nc(N)c1-c1ccc(Cl)cc1 [PYRIMETHAMINE]
- IC50 [2]: 23.3 µM
- IC90 [2]: 35.9 µM
- MIC [2]: 50 µM (≈ 12.4 µg/mL)

Structure (SMILES): CC1(C)CC[C@]2(C(=O)O)CC[C@]3(C)C(=CC[C@@H]4[C@@]5(C)CC[C@H](OC(=O)/C=C/c6ccc(O)cc6)C(C)(C)[C@@H]5CC[C@]43C)[C@@H]2C1
- MIC [4]: 6.25 µg/mL (≈ 10.4 µM)

Structure (SMILES): CC1(C)CC[C@@]23CC[C@]4(C)C(OC2)(C(=O)C[C@@H]2[C@@]5(C)CCCNC(C)(C)[C@@H]5CC[C@]24C)[C@H]3C1
- IC50 [2]: 11 µM
- IC90 [2]: 53 µM
- MIC [2]: 29 µM (≈ 13.2 µg/mL)

Structure (SMILES): N[C@@H]1CONC1=O [CYCLOSERINE]
- IC50 [2]: 20.8 µM
- IC90 [2]: 33.1 µM
- MIC [2]: 50 µM (≈ 5.1 µg/mL)

Structure (SMILES): C=C(C)[C@@H]1CC[C@]2(C(=O)OC)CC[C@]3(C)[C@H](CC[C@@H]4[C@@]5(C)CCC(=O)NC(C)(C)[C@@H]5CC[C@]43C)[C@@H]12
- MIC [2]: > 10 µM

Structure (SMILES): C=C(C)[C@@H]1CC[C@]2(C)CC[C@]3(C)[C@H](CC[C@@H]4[C@@]5(C)CC[C@H](O)C(C)(C)[C@@H]5CC[C@]43C)[C@@H]12 [LUPEOL]
- MIC90 [7]: > 64 µg/mL

Structure (SMILES): C/C(=N\O)[C@@H]1CC[C@]2(CO)CC[C@]3(C)[C@H](CC[C@@H]4[C@@]5(C)CCCNC(C)(C)[C@@H]5CC[C@]43C)[C@@H]12
- IC50 [2]: 43 µM
- IC90 [2]: 41 µM
- MIC [2]: 43 µM (≈ 19.7 µg/mL)

Structure (SMILES): CC(=O)[C@@H]1CC[C@]2(CO)CC[C@]3(C)[C@H](CC[C@@H]4[C@@]5(C)CCCNC(C)(C)[C@@H]5CC[C@]43C)[C@@H]12
- IC50 [2]: 17.7 µM
- IC90 [2]: 56.9 µM
- MIC [2]: 50 µM (≈ 22.2 µg/mL)
